Measured values as given in the supplement of paper PMC10307832.

Tests used:
Assay in all cases: relative viability (nuclei count vs DMSO), 5 days (fraction); higher = more cells survive
[1] = compound: CC1=CC(=CC=C1)NC2=NC(=CS2)C3=CC=NC=C3 + CS(=O)(=O)N1CCN(Cc2cc3nc(-c4cccc5[nH]ncc45)nc(N4CCOCC4)c3s2)CC1 [Pictilisib] (partner 1 µM)
Outline: (§1)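 Lung cancer cell lines in 1536-well plates got either a single drug or a fixed anchor-drug dose together with five library-drug doses (not always all listed) in √10 steps, by pin tool, on the day after seeding. Nuclei were counted after 5 days, and relative viability is the treated-to-vehicle ratio of nuclei counts. Values are medians of duplicate plates.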

Masitinib + Lapatinib = compound: Cc1ccc(NC(=O)c2ccc(CN3CCN(C)CC3)cc2)cc1Nc1nc(-c2cccnc2)cs1 [Masitinib] + CS(=O)(=O)CCNCc1ccc(-c2ccc3ncnc(Nc4ccc(OCc5cccc(F)c5)c(Cl)c4)c3c2)o1 [Lapatinib] (partner 2 µM)
Outline: as §1

[2] = compound: CC1=CC(=CC=C1)NC2=NC(=CS2)C3=CC=NC=C3 + CS(=O)(=O)CCNCc1ccc(-c2ccc3ncnc(Nc4ccc(OCc5cccc(F)c5)c(Cl)c4)c3c2)o1 [Lapatinib] (partner 2 µM)
Outline: as §1

Masitinib + Alpelisib = compound: Cc1ccc(NC(=O)c2ccc(CN3CCN(C)CC3)cc2)cc1Nc1nc(-c2cccnc2)cs1 [Masitinib] + Cc1nc(NC(=O)N2CCC[C@H]2C(N)=O)sc1-c1ccnc(C(C)(C)C(F)(F)F)c1 [Alpelisib] (partner 2 µM)
Outline: as §1

With NCI-H2228 the relative viability ([1]; first compound 0.08 µM) was 0.413, the relative viability ([1]; first compound 0.253 µM) was 0.431 and the relative viability ([1]; first compound 0.8 µM) was 0.281. The relative viability ([1]; first compound 2.53 µM) was 0.453, the relative viability ([1]; first compound 8 µM) was 0.359 and the relative viability (Masitinib + Lapatinib; first compound 0.01 µM) was 0.972. For the same cell line, the relative viability (Masitinib + Lapatinib; first compound 0.03162 µM) was 1.32, the relative viability (Masitinib + Lapatinib; first compound 0.1 µM) was 1.14 and the relative viability (Masitinib + Lapatinib; first compound 0.3162 µM) was 1.38. For the same cell line, the relative viability (Masitinib + Lapatinib; first compound 1 µM) was 1.06, the relative viability ([2]; first compound 0.08 µM) was 0.948 and the relative viability ([2]; first compound 0.253 µM) was 1.11. It also gave a relative viability ([2]; first compound 0.8 µM) of 0.884, a relative viability ([2]; first compound 2.53 µM) of 0.823 and a relative viability ([2]; first compound 8 µM) of 0.883. The relative viability (Masitinib + Alpelisib; first compound 0.01 µM) was 0.897, the relative viability (Masitinib + Alpelisib; first compound 0.03162 µM) was 0.708 and the relative viability (Masitinib + Alpelisib; first compound 0.1 µM) was 0.835. The relative viability (Masitinib + Alpelisib; first compound 0.3162 µM) was 0.685 and the relative viability (Masitinib + Alpelisib; first compound 1 µM) was 0.844.

HOP-62 gave a relative viability ([1]; first compound 0.08 µM) of 0.581, a relative viability ([1]; first compound 0.253 µM) of 0.758 and a relative viability ([1]; first compound 0.8 µM) of 1.09. It also gave a relative viability ([1]; first compound 2.53 µM) of 0.668, a relative viability ([1]; first compound 8 µM) of 0.903 and a relative viability (Masitinib + Lapatinib; first compound 0.01 µM) of 0.814. It also gave a relative viability (Masitinib + Lapatinib; first compound 0.03162 µM) of 1.11, a relative viability (Masitinib + Lapatinib; first compound 0.1 µM) of 0.854 and a relative viability (Masitinib + Lapatinib; first compound 0.3162 µM) of 1.31. For the same cell line, the relative viability (Masitinib + Lapatinib; first compound 1 µM) was 0.937, the relative viability ([2]; first compound 0.08 µM) was 0.94 and the relative viability ([2]; first compound 0.253 µM) was 1.02. The relative viability ([2]; first compound 0.8 µM) was 1.2, the relative viability ([2]; first compound 2.53 µM) was 1 and the relative viability ([2]; first compound 8 µM) was 0.909. For the same cell line, the relative viability (Masitinib + Alpelisib; first compound 0.01 µM) was 0.777, the relative viability (Masitinib + Alpelisib; first compound 0.03162 µM) was 1.09 and the relative viability (Masitinib + Alpelisib; first compound 0.1 µM) was 1.18. The relative viability (Masitinib + Alpelisib; first compound 0.3162 µM) was 1.07 and the relative viability (Masitinib + Alpelisib; first compound 1 µM) was 0.83.

CAL-12T was tested, and the relative viability ([1]; first compound 0.08 µM) was 0.286, the relative viability ([1]; first compound 0.8 µM) was 0.557 and the relative viability ([1]; first compound 2.53 µM) was 0.261. For the same cell line, the relative viability ([1]; first compound 8 µM) was 0.388, the relative viability (Masitinib + Lapatinib; first compound 0.01 µM) was 0.612 and the relative viability (Masitinib + Lapatinib; first compound 0.03162 µM) was 0.729. The relative viability (Masitinib + Lapatinib; first compound 0.1 µM) was 0.745, the relative viability (Masitinib + Lapatinib; first compound 0.3162 µM) was 0.592 and the relative viability (Masitinib + Lapatinib; first compound 1 µM) was 0.499. For the same cell line, the relative viability ([2]; first compound 0.08 µM) was 0.534, the relative viability ([2]; first compound 0.8 µM) was 0.649 and the relative viability ([2]; first compound 2.53 µM) was 0.608. The relative viability ([2]; first compound 8 µM) was 0.678, the relative viability (Masitinib + Alpelisib; first compound 0.01 µM) was 1.21 and the relative viability (Masitinib + Alpelisib; first compound 0.03162 µM) was 1.2. It also gave a relative viability (Masitinib + Alpelisib; first compound 0.1 µM) of 1.18, a relative viability (Masitinib + Alpelisib; first compound 0.3162 µM) of 1.36 and a relative viability (Masitinib + Alpelisib; first compound 1 µM) of 1.18.

NCI-H596 was tested, and the relative viability ([1]; first compound 0.08 µM) was 0.347, the relative viability ([1]; first compound 0.253 µM) was 0.378 and the relative viability ([1]; first compound 0.8 µM) was 0.34. For the same cell line, the relative viability ([1]; first compound 2.53 µM) was 0.402, the relative viability ([1]; first compound 8 µM) was 0.264 and the relative viability (Masitinib + Lapatinib; first compound 0.01 µM) was 1.13. The relative viability (Masitinib + Lapatinib; first compound 0.03162 µM) was 1.2, the relative viability (Masitinib + Lapatinib; first compound 0.1 µM) was 1.07 and the relative viability (Masitinib + Lapatinib; first compound 0.3162 µM) was 1.06. It also gave a relative viability (Masitinib + Lapatinib; first compound 1 µM) of 0.911, a relative viability ([2]; first compound 0.08 µM) of 0.854 and a relative viability ([2]; first compound 0.253 µM) of 0.974. The relative viability ([2]; first compound 0.8 µM) was 0.819, the relative viability ([2]; first compound 2.53 µM) was 0.94 and the relative viability ([2]; first compound 8 µM) was 1.01. For the same cell line, the relative viability (Masitinib + Alpelisib; first compound 0.01 µM) was 0.341, the relative viability (Masitinib + Alpelisib; first compound 0.03162 µM) was 0.462 and the relative viability (Masitinib + Alpelisib; first compound 0.1 µM) was 0.625. For the same cell line, the relative viability (Masitinib + Alpelisib; first compound 0.3162 µM) was 0.397 and the relative viability (Masitinib + Alpelisib; first compound 1 µM) was 0.435.

For NCI-H1792, the relative viability ([1]; first compound 0.08 µM) was 0.155, the relative viability ([1]; first compound 0.253 µM) was 0.198 and the relative viability ([1]; first compound 0.8 µM) was 0.219. It also gave a relative viability ([1]; first compound 2.53 µM) of 0.162, a relative viability ([1]; first compound 8 µM) of 0.24 and a relative viability (Masitinib + Lapatinib; first compound 0.01 µM) of 0.721. It also gave a relative viability (Masitinib + Lapatinib; first compound 0.03162 µM) of 0.405, a relative viability (Masitinib + Lapatinib; first compound 0.1 µM) of 0.874 and a relative viability (Masitinib + Lapatinib; first compound 0.3162 µM) of 0.846. For the same cell line, the relative viability (Masitinib + Lapatinib; first compound 1 µM) was 0.995, the relative viability ([2]; first compound 0.08 µM) was 0.885 and the relative viability ([2]; first compound 0.253 µM) was 0.659. It also gave a relative viability ([2]; first compound 0.8 µM) of 0.772, a relative viability ([2]; first compound 2.53 µM) of 0.722 and a relative viability ([2]; first compound 8 µM) of 0.866. It also gave a relative viability (Masitinib + Alpelisib; first compound 0.01 µM) of 0.69, a relative viability (Masitinib + Alpelisib; first compound 0.03162 µM) of 0.203 and a relative viability (Masitinib + Alpelisib; first compound 0.1 µM) of 0.61. For the same cell line, the relative viability (Masitinib + Alpelisib; first compound 0.3162 µM) was 0.65 and the relative viability (Masitinib + Alpelisib; first compound 1 µM) was 0.698.

NCI-H2085 showed a relative viability ([1]; first compound 0.08 µM) of 0.5, a relative viability ([1]; first compound 0.253 µM) of 0.434 and a relative viability ([1]; first compound 0.8 µM) of 0.453. For the same cell line, the relative viability ([1]; first compound 2.53 µM) was 0.426, the relative viability ([1]; first compound 8 µM) was 0.447 and the relative viability (Masitinib + Lapatinib; first compound 0.01 µM) was 0.732. The relative viability (Masitinib + Lapatinib; first compound 0.03162 µM) was 0.736, the relative viability (Masitinib + Lapatinib; first compound 0.1 µM) was 0.839 and the relative viability (Masitinib + Lapatinib; first compound 0.3162 µM) was 0.703. It also gave a relative viability (Masitinib + Lapatinib; first compound 1 µM) of 0.664, a relative viability ([2]; first compound 0.08 µM) of 0.658 and a relative viability ([2]; first compound 0.253 µM) of 0.639. It also gave a relative viability ([2]; first compound 0.8 µM) of 0.707, a relative viability ([2]; first compound 2.53 µM) of 0.67 and a relative viability ([2]; first compound 8 µM) of 0.674. It also gave a relative viability (Masitinib + Alpelisib; first compound 0.01 µM) of 0.838, a relative viability (Masitinib + Alpelisib; first compound 0.03162 µM) of 1 and a relative viability (Masitinib + Alpelisib; first compound 0.1 µM) of 1.09. The relative viability (Masitinib + Alpelisib; first compound 0.3162 µM) was 0.935 and the relative viability (Masitinib + Alpelisib; first compound 1 µM) was 0.985.

In the case of NCI-H2023, the relative viability ([1]; first compound 0.08 µM) was 0.161, the relative viability ([1]; first compound 0.253 µM) was 0.177 and the relative viability ([1]; first compound 0.8 µM) was 0.215. For the same cell line, the relative viability ([1]; first compound 2.53 µM) was 0.175, the relative viability ([1]; first compound 8 µM) was 0.18 and the relative viability (Masitinib + Lapatinib; first compound 0.01 µM) was 0.628. The relative viability (Masitinib + Lapatinib; first compound 0.03162 µM) was 0.823, the relative viability (Masitinib + Lapatinib; first compound 0.1 µM) was 0.73 and the relative viability (Masitinib + Lapatinib; first compound 0.3162 µM) was 0.559. It also gave a relative viability (Masitinib + Lapatinib; first compound 1 µM) of 0.776, a relative viability ([2]; first compound 0.08 µM) of 0.661 and a relative viability ([2]; first compound 0.253 µM) of 0.698. For the same cell line, the relative viability ([2]; first compound 0.8 µM) was 0.771, the relative viability ([2]; first compound 2.53 µM) was 0.749 and the relative viability ([2]; first compound 8 µM) was 0.473. The relative viability (Masitinib + Alpelisib; first compound 0.01 µM) was 0.581, the relative viability (Masitinib + Alpelisib; first compound 0.03162 µM) was 0.62 and the relative viability (Masitinib + Alpelisib; first compound 0.1 µM) was 0.6. The relative viability (Masitinib + Alpelisib; first compound 0.3162 µM) was 0.518 and the relative viability (Masitinib + Alpelisib; first compound 1 µM) was 0.548.
